Reference: article PMC4858680, “A platinum-based hybrid drug design approach to circumvent acquired resistance to molecular targeted tyrosine kinase inhibitors” (Scientific Reports, 2016)
Like-named read-outs stand apart in the source and are kept apart here.

Legend:
EGFR(L747-T751del,Sins) = assay type: binding; conditions: 10 μM
FER = molecular target: T1, FER (Homo sapiens, UniProt P16591); assay type: binding; conditions: for Percent control: 10 μM
T1 construct: purchased DiscoveRx KINOMEscan
T1 sequence (P16591 whole entry): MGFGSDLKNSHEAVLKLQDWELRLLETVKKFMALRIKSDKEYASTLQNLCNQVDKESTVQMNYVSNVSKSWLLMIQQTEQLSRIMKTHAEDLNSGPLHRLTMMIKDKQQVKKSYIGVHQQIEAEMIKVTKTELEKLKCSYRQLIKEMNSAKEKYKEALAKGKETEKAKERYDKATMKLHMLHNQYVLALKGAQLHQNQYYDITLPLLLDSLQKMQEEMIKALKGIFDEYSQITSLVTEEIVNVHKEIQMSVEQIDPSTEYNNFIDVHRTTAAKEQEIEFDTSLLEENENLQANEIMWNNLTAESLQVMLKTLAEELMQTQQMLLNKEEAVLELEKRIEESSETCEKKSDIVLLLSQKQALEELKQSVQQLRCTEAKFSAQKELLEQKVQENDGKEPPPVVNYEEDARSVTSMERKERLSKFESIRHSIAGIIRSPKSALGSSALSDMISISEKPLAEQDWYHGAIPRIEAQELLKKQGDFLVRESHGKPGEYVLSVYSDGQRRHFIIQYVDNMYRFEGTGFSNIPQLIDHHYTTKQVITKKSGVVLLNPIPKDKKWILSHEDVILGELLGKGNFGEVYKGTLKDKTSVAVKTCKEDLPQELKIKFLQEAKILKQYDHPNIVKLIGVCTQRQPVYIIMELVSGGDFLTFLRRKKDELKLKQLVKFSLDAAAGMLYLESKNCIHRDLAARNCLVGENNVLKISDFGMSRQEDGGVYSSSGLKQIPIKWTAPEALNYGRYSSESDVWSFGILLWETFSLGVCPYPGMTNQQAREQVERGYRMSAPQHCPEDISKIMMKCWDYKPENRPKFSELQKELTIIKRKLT

EPHA1 = molecular target: T2, EPHA1 (Homo sapiens, UniProt P21709); conditions: 10 μM
T2 sequence (P21709 26-976): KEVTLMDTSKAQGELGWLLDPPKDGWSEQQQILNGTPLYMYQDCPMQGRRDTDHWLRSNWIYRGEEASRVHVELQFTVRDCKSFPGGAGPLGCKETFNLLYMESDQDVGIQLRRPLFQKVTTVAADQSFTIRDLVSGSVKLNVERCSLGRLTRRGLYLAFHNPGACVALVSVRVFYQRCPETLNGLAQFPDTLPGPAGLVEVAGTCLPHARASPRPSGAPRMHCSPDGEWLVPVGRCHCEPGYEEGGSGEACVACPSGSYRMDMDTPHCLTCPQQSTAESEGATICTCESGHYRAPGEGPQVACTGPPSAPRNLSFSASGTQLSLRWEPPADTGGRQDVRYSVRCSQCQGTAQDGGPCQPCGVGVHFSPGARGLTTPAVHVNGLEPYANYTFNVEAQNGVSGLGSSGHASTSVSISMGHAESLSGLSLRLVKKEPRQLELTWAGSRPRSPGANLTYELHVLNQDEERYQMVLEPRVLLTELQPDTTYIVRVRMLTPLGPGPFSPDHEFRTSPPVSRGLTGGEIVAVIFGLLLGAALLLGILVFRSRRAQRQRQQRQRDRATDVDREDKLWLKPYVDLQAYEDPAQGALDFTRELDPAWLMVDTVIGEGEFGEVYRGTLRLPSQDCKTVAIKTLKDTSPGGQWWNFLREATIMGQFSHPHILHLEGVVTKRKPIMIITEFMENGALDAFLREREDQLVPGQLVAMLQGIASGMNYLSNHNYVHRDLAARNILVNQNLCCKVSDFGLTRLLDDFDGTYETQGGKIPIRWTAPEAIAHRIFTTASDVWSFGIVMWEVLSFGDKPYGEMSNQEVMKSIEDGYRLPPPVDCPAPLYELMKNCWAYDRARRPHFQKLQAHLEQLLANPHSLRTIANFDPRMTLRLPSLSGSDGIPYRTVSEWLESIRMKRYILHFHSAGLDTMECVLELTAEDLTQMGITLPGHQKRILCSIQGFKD

EPHA5 = EPHA5 (Homo sapiens, UniProt P54756); conditions: 10 μM
EPHA5, sequence (P54756 25-1037): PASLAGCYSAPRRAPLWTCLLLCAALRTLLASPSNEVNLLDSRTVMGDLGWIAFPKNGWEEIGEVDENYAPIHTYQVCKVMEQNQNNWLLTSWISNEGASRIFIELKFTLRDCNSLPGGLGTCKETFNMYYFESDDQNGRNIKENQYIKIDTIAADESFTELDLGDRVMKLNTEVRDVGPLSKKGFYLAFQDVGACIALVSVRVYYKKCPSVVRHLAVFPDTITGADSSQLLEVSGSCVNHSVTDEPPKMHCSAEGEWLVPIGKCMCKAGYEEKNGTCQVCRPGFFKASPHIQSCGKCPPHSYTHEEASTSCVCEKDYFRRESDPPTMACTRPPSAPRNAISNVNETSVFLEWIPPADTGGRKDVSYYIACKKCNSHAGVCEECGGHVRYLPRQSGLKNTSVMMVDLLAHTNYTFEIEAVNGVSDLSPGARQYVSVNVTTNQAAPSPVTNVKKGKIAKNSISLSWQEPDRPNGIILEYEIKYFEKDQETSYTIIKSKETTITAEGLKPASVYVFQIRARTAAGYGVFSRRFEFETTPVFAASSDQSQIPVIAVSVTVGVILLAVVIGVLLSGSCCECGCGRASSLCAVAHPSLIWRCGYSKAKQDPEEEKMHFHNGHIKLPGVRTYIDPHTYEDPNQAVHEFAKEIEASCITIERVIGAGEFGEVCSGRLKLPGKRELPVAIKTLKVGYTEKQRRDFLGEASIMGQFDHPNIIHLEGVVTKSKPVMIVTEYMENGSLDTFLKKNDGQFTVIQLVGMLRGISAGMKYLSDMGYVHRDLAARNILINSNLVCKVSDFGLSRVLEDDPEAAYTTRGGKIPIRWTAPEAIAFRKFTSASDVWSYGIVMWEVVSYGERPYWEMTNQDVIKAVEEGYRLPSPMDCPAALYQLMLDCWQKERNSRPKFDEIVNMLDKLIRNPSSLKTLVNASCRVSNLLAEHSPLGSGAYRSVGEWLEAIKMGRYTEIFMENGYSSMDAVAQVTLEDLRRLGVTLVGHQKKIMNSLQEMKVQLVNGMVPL

EPHA6 = molecular target: T3, EPHA6 (Homo sapiens, UniProt Q9UF33); conditions: 10 μM
T3 sequence (Q9UF33 23-1036): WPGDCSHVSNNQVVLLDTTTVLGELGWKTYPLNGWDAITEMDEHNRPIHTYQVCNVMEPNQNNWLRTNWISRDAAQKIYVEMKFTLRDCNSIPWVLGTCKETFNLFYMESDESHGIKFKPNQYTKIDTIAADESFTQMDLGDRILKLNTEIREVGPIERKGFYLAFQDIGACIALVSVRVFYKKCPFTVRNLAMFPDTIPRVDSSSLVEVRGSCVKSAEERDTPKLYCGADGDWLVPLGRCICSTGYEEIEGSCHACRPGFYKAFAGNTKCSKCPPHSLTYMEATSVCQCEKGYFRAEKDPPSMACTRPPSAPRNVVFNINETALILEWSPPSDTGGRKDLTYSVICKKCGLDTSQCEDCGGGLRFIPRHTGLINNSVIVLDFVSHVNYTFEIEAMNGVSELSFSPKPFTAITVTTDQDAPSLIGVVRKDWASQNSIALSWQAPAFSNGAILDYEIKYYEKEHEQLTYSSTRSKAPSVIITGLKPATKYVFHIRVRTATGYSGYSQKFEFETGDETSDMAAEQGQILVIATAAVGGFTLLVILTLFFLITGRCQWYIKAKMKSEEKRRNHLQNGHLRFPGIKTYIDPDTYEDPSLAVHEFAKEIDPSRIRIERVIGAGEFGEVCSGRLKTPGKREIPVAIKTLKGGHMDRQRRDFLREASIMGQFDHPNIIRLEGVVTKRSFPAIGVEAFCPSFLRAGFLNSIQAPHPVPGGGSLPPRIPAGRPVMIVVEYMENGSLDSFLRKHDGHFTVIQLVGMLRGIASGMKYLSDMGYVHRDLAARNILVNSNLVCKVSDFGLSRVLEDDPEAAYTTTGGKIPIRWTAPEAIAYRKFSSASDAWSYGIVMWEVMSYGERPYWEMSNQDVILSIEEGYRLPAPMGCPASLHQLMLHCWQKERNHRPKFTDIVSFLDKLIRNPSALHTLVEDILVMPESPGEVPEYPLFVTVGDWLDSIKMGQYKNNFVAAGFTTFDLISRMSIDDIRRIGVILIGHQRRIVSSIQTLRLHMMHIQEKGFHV

FGFR2 = FGFR2 (Homo sapiens, UniProt P21802); conditions: 10 μM
FGFR2, sequence (P21802 22-821): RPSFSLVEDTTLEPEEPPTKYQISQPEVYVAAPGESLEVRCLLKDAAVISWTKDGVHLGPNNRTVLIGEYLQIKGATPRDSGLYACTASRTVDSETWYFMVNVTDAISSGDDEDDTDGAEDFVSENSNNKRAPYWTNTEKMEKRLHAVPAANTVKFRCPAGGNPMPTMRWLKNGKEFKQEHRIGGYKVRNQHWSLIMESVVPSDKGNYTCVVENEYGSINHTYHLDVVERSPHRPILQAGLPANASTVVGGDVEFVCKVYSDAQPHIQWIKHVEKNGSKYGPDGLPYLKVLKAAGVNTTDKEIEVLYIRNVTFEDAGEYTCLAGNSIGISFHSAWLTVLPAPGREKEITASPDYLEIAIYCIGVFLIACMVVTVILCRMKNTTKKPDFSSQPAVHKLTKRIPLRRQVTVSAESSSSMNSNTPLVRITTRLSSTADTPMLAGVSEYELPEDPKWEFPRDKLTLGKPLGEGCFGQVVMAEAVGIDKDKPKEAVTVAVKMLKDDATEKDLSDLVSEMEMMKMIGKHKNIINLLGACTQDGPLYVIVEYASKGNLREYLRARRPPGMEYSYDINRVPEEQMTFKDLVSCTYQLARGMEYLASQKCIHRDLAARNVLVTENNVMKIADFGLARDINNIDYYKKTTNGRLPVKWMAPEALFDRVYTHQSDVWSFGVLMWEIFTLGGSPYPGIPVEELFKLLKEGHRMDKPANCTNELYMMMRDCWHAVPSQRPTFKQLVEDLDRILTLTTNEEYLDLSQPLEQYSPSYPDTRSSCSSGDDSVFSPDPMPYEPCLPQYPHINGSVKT

FLT3(K663D) = molecular target: T4, FLT3(K663D) (Homo sapiens, UniProt P36888, K663Q)
T4 sequence (P36888 564-993 K663Q limits assumed): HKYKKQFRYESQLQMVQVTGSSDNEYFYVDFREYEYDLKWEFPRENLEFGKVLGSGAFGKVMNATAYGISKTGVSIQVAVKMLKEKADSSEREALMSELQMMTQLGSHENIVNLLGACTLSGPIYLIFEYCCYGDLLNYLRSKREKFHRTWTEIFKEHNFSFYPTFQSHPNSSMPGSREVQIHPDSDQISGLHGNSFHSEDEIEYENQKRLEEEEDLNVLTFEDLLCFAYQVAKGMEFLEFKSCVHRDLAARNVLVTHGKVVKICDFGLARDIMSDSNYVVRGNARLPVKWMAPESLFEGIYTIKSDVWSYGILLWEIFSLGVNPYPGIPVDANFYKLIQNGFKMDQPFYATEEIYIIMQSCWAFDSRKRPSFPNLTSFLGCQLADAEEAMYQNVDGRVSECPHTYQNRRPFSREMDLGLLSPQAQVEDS

SMILES | Percent control (EGFR(L747-T751del,Sins)) [%] | Percent control (FER) [%] | Percent control (EPHA1) [%] | Percent control (EPHA5) [%] | Percent control (EPHA6) [%] | Percent control (FGFR2) [%] | Percent control (FLT3(K663D); FLT3(K663D), 10 μM) [%] | remaining binding at 10 µM (FER; read-out: Percent control) [%] | Percent control (FLT3(K663D))
C#Cc1cccc(Nc2ncnc3cc(OCCOC)c(OCCOC)cc23)c1 [Erlotinib] | 0.0 |  |  |  |  |  |  |  | 
Cc1ccc(NC(=O)c2ccc(CN3CCN(C)CC3)cc2)cc1Nc1nccc(-c2cccnc2)[n+]1[Pt-2]1([Cl])[NH2+]C2CCCCC2[NH2+]1 (stereo not shown) [1b, oxaliplatin-imatinib] | 76 | 89 | 86 | 100 | 90 | 100 | 84 |  | 
Cc1ccc(NC(=O)c2ccc(CN3CCN(C)CC3)cc2)cc1Nc1nccc(-c2cccnc2)n1 [Imatinib, reference compound] | 100 | 100 | 100 |  | 100 | 100 | 100 |  | 
COc1cc2c(Nc3ccc(Br)cc3F)ncnc2cc1OCC1CCN(C)CC1 [Vandetanib, reference compound] | 0.1 |  |  |  |  |  |  | 100 | 
COc1cc2c(Nc3ccc(Br)cc3F)[n+]([Pt-2]3([Cl])[NH2+]C4CCCCC4[NH2+]3)cnc2cc1OCC1CCN(C)CC1 (stereo not shown) [3b, oxaliplatin-vandetanib] |  | 90 | 11 | 78 | 6.3 | 67 |  |  | 43
C#Cc1cccc(Nc2c3cc(OCCOC)c(OCCOC)cc3nc[n+]2[Pt@SP2-2]([NH3+])([NH3+])[Cl])c1 [2a, cisplatin-erlotinib] |  | 95 | 73 | 100 | 71 | 91 |  |  | 67
